Experimental data taken from the supplement of paper PMC11061612.

Key:
Assay in all cases: combination Emax (second highest fraction inhibited in the dose matrix, 72 h); higher = more inhibition; extreme values may be limits of the assay
[1] = test system: KCL-22 (Chronic Myelogenous Leukemia)
How it was run: (§1)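 Bliss excess equals the observed combination effect minus the expected value EA + EB − EA·EB, where EA and EB are the effects of each agent alone. Combination Emax is the second-highest inhibition within the matrix. Inhibition was scaled from CellTiter-Glo 2.0 luminescence, with 0 set by vehicle wells and 1 by blank wells, after 72 hours of two-drug dosing of cells plated in 1536-well plates.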

[2] = test system: P12-ICHIKAWA (T-Lymphoblastic Leukemia)
How it was run: as §1

[3] = test system: COLO-678 (Colorectal Carcinoma)
How it was run: as §1

WIL2-NS (Non-Cancerous) = test system: WIL2-NS (Non-Cancerous)
How it was run: as §1

[4] = test system: KYSE-180 (Esophageal Squamous Cell Carcinoma)
How it was run: as §1

[5] = test system: L-540 (Hodgkin's Lymphoma)
How it was run: as §1

LN-18 (Glioblastoma) = test system: LN-18 (Glioblastoma)
How it was run: as §1

TC-71 (Ewing's Sarcoma) = test system: TC-71 (Ewing's Sarcoma)
How it was run: as §1

[6] = test system: MFM-223 (Breast Carcinoma)
How it was run: as §1

[7] = test system: BFTC-905 (Bladder Carcinoma)
How it was run: as §1

[8] = test system: PANC-08-13 (Pancreatic Carcinoma)
How it was run: as §1

[9] = test system: DND-41 (T-Lymphoblastic Leukemia)
How it was run: as §1

U251 (Low Grade Glioma) = test system: U251 (Low Grade Glioma)
How it was run: as §1

MEL-JUSO (Melanoma) = test system: MEL-JUSO (Melanoma)
How it was run: as §1

[10] = test system: EVSA-T (Breast Carcinoma)
How it was run: as §1

[11] = test system: MOLT-16 (T-Lymphoblastic Leukemia)
How it was run: as §1

ES1 (Ewing's Sarcoma) = test system: ES1 (Ewing's Sarcoma)
How it was run: as §1

[12] = test system: TOV-112D (Ovarian Carcinoma)
How it was run: as §1

NCI-H2818 (Mesothelioma) = test system: NCI-H2818 (Mesothelioma)
How it was run: as §1

[13] = test system: SW1417 (Colorectal Carcinoma)
How it was run: as §1

Structure (SMILES) | combination Emax [1] | combination Emax [2] | combination Emax [3] | combination Emax (WIL2-NS (Non-Cancerous)) | combination Emax [4] | combination Emax [5] | combination Emax (LN-18 (Glioblastoma)) | combination Emax (TC-71 (Ewing's Sarcoma)) | combination Emax [6] | combination Emax [7] | combination Emax [8] | combination Emax [9] | combination Emax (U251 (Low Grade Glioma)) | combination Emax (MEL-JUSO (Melanoma)) | combination Emax [10] | combination Emax [11] | combination Emax (ES1 (Ewing's Sarcoma)) | combination Emax [12] | combination Emax (NCI-H2818 (Mesothelioma)) | combination Emax [13]
COc1cc2ncnc(Nc3ccc(F)c(Cl)c3)c2cc1OCCCN1CCOCC1 [Gefitinib] + CC(C)n1c(=O)n(C)c2cnc3cc(F)c(-c4ccc(OCCCN5CCCCC5)nc4)cc3c21 [AZD1390] (first compound max 10 µM, 7x7, partner max 0.3 µM) | 0.155 | 0.144 | 0.306 | 0.397 | 0.246 | 0.451 | 0.146 | 0.183 | 0.121 | 0.212 | 0.143 | 0.115 | 0.0432 | 0.114 | 0.27 | 0.363 | 0.353 | 0.276 | 0.146 | 0.164
CN(C)CCCOc1ccc(-c2ccc3ncc4c(c3c2)n(C2CCOCC2)c(=O)n4C)cn1 [AZD0156] + O=C(c1cc(Cc2n[nH]c(=O)c3ccccc23)ccc1F)N1CCN(C(=O)C2CC2)CC1 [Olaparib] (first compound max 3 µM, partner max 3 µM) | 0.457 | 0.611 | 0.216 | 0.6 | 0.233 | 0.406 | 0.203 | 0.804 | 0.179 | 0.544 | 0.241 | 0.372 | 0.294 | 0.115 | 0.234 | 0.914 | 0.834 | 0.552 | 0.38 | 0.135
CC1(C)CCC(CN2CCN(c3ccc(C(=O)NS(=O)(=O)c4ccc(NCC5CCOCC5)c([N+](=O)[O-])c4)c(Oc4cnc5[nH]ccc5c4)c3)CC2)=C(c2ccc(Cl)cc2)C1 [Venetoclax] + C1CN(CCC1(C(=O)N[C@@H](CCO)C2=CC=C(C=C2)Cl)N)C3=NC=NC4=C3C=CN4 [Capivasertib] (first compound max 1 µM, 7x7, partner max 3 µM) | 0.183 | 0.49 | 0.0815 | 0.912 | 0.312 | 0.638 | 0.365 | 0.257 | 0.639 | 0.193 | 0.189 | 0.921 | 0.303 | 0.204 | 0.855 | 1 | 0.547 | 0.0882 | 0.175 | 0.193
Cc1c2c(nn1C)CSCc1cc(n(C)n1)CSc1cc(c3ccccc3c1)OCCCc1c(C(=O)O)n(C)c3c-2c(Cl)ccc13 [AZD5991] + C[C@@H]1COCCN1C2=NC(=NC(=C2)C3(CC3)[S@](=N)(=O)C)C4=C5C=CNC5=NC=C4 [AZD6738] (first compound max 1 µM, 7x7, partner max 10 µM) | 0.997 | 1 | 0.241 | 0.969 | 0.979 | 1 | 0.842 | 0.987 | 0.824 | 0.862 | 0.419 | 0.9 | 0.648 | 0.684 | 1 | 1 | 1 | 0.963 | 0.496 | 0.453
COc1nnc2ccc(N3CCC(c4ccc(OCCN5CCN(C)C(=O)[C@H]5C)cc4)CC3)nn12 [AZD5153] + CC1(C)CCC(CN2CCN(c3ccc(C(=O)NS(=O)(=O)c4ccc(NCC5CCOCC5)c([N+](=O)[O-])c4)c(Oc4cnc5[nH]ccc5c4)c3)CC2)=C(c2ccc(Cl)cc2)C1 [Venetoclax] (first compound max 1 µM, 7x7, partner max 1 µM) | 0.666 | 0.932 | 0.408 | 0.807 | 0.293 | 0.755 | 0.638 | 0.657 | 0.305 | 0.633 | 0.625 | 0.835 | 0.449 | 0.215 | 0.938 | 1 | 0.482 | 0.588 | 0.268 | 0.463
CC1(C)CCC(CN2CCN(c3ccc(C(=O)NS(=O)(=O)c4ccc(NCC5CCOCC5)c([N+](=O)[O-])c4)c(Oc4cnc5[nH]ccc5c4)c3)CC2)=C(c2ccc(Cl)cc2)C1 [Venetoclax] + COc1cc(Nc2ncc3c(n2)-c2ccc(Cl)cc2C(c2c(F)cccc2OC)=NC3)ccc1C(=O)O [Alisertib] (first compound max 1 µM, 7x7, partner max 10 µM) | 0.811 | 0.953 | 0.181 | 0.825 | 0.377 | 0.89 | 0.787 | 0.855 | 0.849 | 0.671 | 0.302 | 0.947 | 0.49 | 0.301 | 0.598 | 1 | 0.842 | 0.684 | 0.36 | 0.235
COc1nnc2ccc(N3CCC(c4ccc(OCCN5CCN(C)C(=O)[C@H]5C)cc4)CC3)nn12 [AZD5153] + CCN(CCO)CCCOc1ccc2c(Nc3cc(CC(=O)Nc4cccc(F)c4)[nH]n3)ncnc2c1 [AZD2811] (first compound max 1 µM, 7x7, partner max 1 µM) | 0.68 | 1 | 0.506 | 0.811 | 0.397 | 0.716 | 0.632 | 0.884 | 0.415 | 0.71 | 0.656 | 0.667 | 0.661 | 0.37 | 0.938 | 1 | 0.612 | 0.718 | 0.292 | 0.477
